Data on seven compounds can be found in patent publication US9115092B2, “Substituted quinazoline and pyrido-pyrimidine derivatives” (Asana Biosciences, LLC, priority 2010, dated 2015).

By inhibition is commonly meant the percentage by which the read-out fell short of the control. Low values mean little suppression, high ones strong suppression.

The target of assay [1] is T1, PI3Kα (wild-type), P110/P85α (Homo sapiens, UniProt P42336).
T1 construct: made in house; host or cells: SF9 insect cells
Kind of assay: PI3 Kinase TR-FRET assay, PI3Kα (wild-type). The assay is classed as biochemical. In outline: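 TR-FRET read-out of PIP3 formation via biotin-PIP3 displacement (665/615 nm ratio) gave IC50 curves. Enzyme: 5 ng wild-type P110/P85α from Sf9 cells, 60 min RT with compound and PIP2 (MgCl2 40 mM, DTT 5 mM), then 30 min RT kinase reaction at 10 μM ATP and 10 μM PIP2.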
A general note: TR-FRET usually uses a lanthanide donor and a delayed reading to cut background.

A further assay has as its target PI3 kinase isoform δ (Homo sapiens, UniProt O00329). Kind of assay: PI3 Kinase TR-FRET assay, isoform δ. The class given is biochemical. The settings on record: read-out: inhibition of PI3 kinase isoform δ, IC50. As for the experimental part:
The ability of compounds of the invention to inhibit PI3K activity was determined in a homogeneous TR-FRET assay using a PI3K assay kit (Millipore, USA; cat #33-016) according to manufacturer's instructions. PI3-Kinases (isoforms α, β, γ and δ) catalyze the phosphorylation of phosphatidylinositol, PIP2 to PIP3 in the presence of ATP and Mg^2+. The PIP3 product is detected by displacement of biotin-PIP3 from an energy transfer complex consisting of Europium labeled anti-GST monoclonal antibody, a GST-tagged PH domain, biotinylated PIP3 and Streptavidin-APC. Excitation of Europium in the complex results in an energy transfer to the APC and a fluorescence emission at 665 nm. The PIP3 product displaces biotin-PIP3 from the complex resulting in a loss of energy transfer and thus a decrease in signal.
To test for the ability of compounds to inhibit the activity of PI3Kα (wild-type), exemplary compounds of formula (I) were dissolved in DMSO and directly distributed into 384-well plates at a volume of 0.5 μL. 14.5 μL of P110/P85α/PIP2 mixture in buffer (obtained from the Millipore kit) containing MgCl2 (40 mM) and DTT (5 mM) was added to compound wells and incubated for 60 min at room temperature. P110/P85α was expressed in SF9 insect cells and purified nickel column extraction. Five ng of wild-type P110/P85α was used in the assay. The kinase reaction was started by the addition of ATP. The assay concentrations of both PIP2 and ATP were 10 μM. The reaction mixture was incubated for 30 min at room temperature and was terminated by the addition of stop mix and detection mix. Fluorescence was measured at 615 and 665 nm upon excitation at 340 nm in a Victor™ V5 fluorometer (Perkin Elmer, USA). The fluorescence emission ratio at 665 to 615 nm, proportional to the kinase activity, was plotted against the compound concentration to generate dose-response curves and IC50 values were determined using GraphPad Prism® 5 software.
The activity of PI3 kinase isoforms β, γ and δ were assayed in a similar manner to the assay protocol described above for PI3Kα, by substituting the appropriate p110/p85 isoform for the p110α/p85α. Compounds of formula (I) caused inhibition of PI3 kinase isoforms β, γ and δ as determined by these assays. For example, the compounds of examples 3, 51, 54, 111, 113, 115, and 253 each caused inhibition of PI3 kinase isoform β with IC50 values <50 nM. The compounds of examples 104, 133, 146 and 152 each caused inhibition of PI3 kinase isoform β with IC50 values <500 nM. The compounds of examples 3, 51, 54, 104, 111, 113, 115, 133, 253, and 152 each caused inhibition of PI3 kinase isoform γ with IC50 values <500 nM. […] The compounds of examples 2, 3, 51, 54, 111, 113, and 253 each caused inhibition of PI3 kinase isoform […] with IC50 values >1 μM.

Another assay deals with T2, mTOR kinase (Homo sapiens, UniProt P42345).
T2 construct: purchased Millipore, USA
In words: mTOR kinase TR-FRET assay. The assay is classed as biochemical. Particulars: read-out: mTO R. In outline:
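TR-FRET read-out (340 nm excitation, 615/665 nm emission) of Thr389 phosphorylation of a ULight-labeled p70 S6K peptide (50 nM) by mTOR, 20 μM ATP, 60 min room temperature after 60 min compound preincubation. Buffer HEPES pH 7.5 with MnCl2, EGTA; IC50 by sigmoidal dose-response.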

The test system of a further assay is PC3 cells. Kind of assay: XTT assay for cell viability, PC3 cells. The class given is cell-based, human. Particulars: Homo sapiens, PC-3, cell viability. In outline:
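PC3 cells seeded at 1000 cells/well, grown 24 h, then exposed to serial dilutions of compound for 96 h. Viability read by XTT dye at 37° C, absorbance 465 nm. EC50 from sigmoidal dose-response fit.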
(In general: Tetrazolium dyes change colour on reduction, which living cells bring about.)

Assay [2] deals with pAKT(5473) (phosphorylated at serine 473), PC3 cells. Kind of assay: In-cell Western assay, pAKT(5473) in PC3 cells. The assay is classed as cell-based. The settings on record: Homo sapiens, PC-3, In-cell Western, read-out: pAkt-S473. The method, then: (§1) Cells from human prostate cancer cell line PC3 (American Type Culture Collection (ATCC), Manassas, Va. 20108 USA) were seeded at an optimal density of 22,000 cell/well in 96-well plates containing Ham's F12K medium (90 μL) and incubated overnight. The compound dilutions were carried out in 100% DMSO followed by a dilution in the medium. Test compounds were added in serial dilutions to the wells and incubated for 2 h. The cells were washed and fixed with 4% paraformaldehyde. After incubation at room temperature for 1 h in the dark, blocking was done for 2 h at room temperature. Primary antibodies for phosphorylated (p) AKT(5473) (phosphorylated at serine 473), pAKT(T308) (phosphorylated at threonine 308) and for pS6RP(S235/236) (phosphorylated at serine 235/236) (commercially available from Cell Signaling Technology®, whose protocol was followed for the in-cell western assay, were diluted to the required concentration and added to the corresponding wells followed by overnight incubation at 4° C. Eu-labeled rabbit (PE) (Perkin-Elmer USA catalog #AD0106) secondary antibody was added and incubated for 2 h at room temperature. Delfia® enhancement solution (cat #1244-105, Perkin Elmer USA) was subsequently added to the plate before taking the reading at 615 nm with excitation wavelength of 340 nm, after which 0.5 μg/mL of Hoechst® 33258 dye (Catalog #86140-5, Sigma) was added to the plate and fluorescence emission was read at 460 nm with 355 nm excitation, to evaluate the correction factor. IC50 values were calculated using a sigmoidal dose-response curve fit in GraphPad Prism® v5 software.

For assay [3], the system named is pS6RP(S235/236), PC3 cells. Kind of assay: In-cell Western assay, pS6RP(S235/236) in PC3 cells. The settings on record: Homo sapiens, PC-3, In-cell Western. The assay is classed as cell-based, human. In outline: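 Overnight-seeded PC3 cells were treated 2 h with serially diluted compound, then fixed and immunostained with phospho-specific primary antibodies and Eu-labelled secondary. Time-resolved Eu signal read at 615 nm (ex 340 nm), normalised by Hoechst 33258 staining (ex 355/em 460 nm); IC50 from sigmoidal dose-response fit.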

In assay [4] the test system is pAKT(T308) (phosphorylated at threonine 308), PC3 cells. Kind of assay: In-cell Western assay, pAKT(T308) in PC3 cells. The class given is cell-based. Particulars: Homo sapiens, PC-3, In-cell Western. As for the experimental part:
as §1

The subject of the next assay is pS6RP in PC3 tumor. Kind of assay: In vivo PK/PD study, PC3 tumor bearing mice, pS6RP. The settings on record: Mus musculus, 50 mg/kg po, at 3 and 8 hours. As for the experimental part:
PC3 cells were cultured at 37° C. in a 5% CO2 incubator using Hams F12 K medium. Ten million (10^7) cells were injected subcutaneously to the right flank region of athymic male mice (Harlan, age: 6-7 weeks, weight: about 20 g). Tumor bearing mice were randomized when the tumor volume reached about 250 mm^3 and three mice were used per each time point. Test compounds of formula (I) were formulated in 40% HPCD in 1×PBS, pH 7.4 and dosed orally at 50 mg/kg single dose (dose volume−10 mL/kg). Plasma and tumor samples were collected at 0 (vehicle control animals), 1, 4 and 24 hours post dosing. Blood was drawn (retro orbital) to a tube containing 0.2% EDTA for plasma collection. The tumor was excised from the mouse and immediately frozen in liquid nitrogen for PD analysis. Tumor and plasma drug concentrations were measured for PK analysis using LC-MS.
Snap frozen tumor samples were pulverized in a mortar (Belart) containing liquid nitrogen and tumor powder was stored at −80° C. until analysis. Pre coated ELISA kits (Cell Signaling Technology; pAKT(T308), CST#7135; pAKT(5473), CST#7134 and pS6RP, CST#7205) were used for PD analysis. Tumor powder was transferred to Eppendorf® tubes and lysis buffer (1 mL) was added to the powder. Protease and phosphatase inhibitors (SIGMA) and phenylmethanesulfonylfluoride (PMSF) were added to tumor powder and mixed by vortexing followed by sonication (15 sec). Samples were kept on an ice bath for 30 min. Supernatant was separated after centrifugation at 10,000 rpm for 20 min at 4° C. Supernatant was re-centrifuged and fresh supernatant was aliquoted to different tubes. Total protein was estimated using a BCA kit (Thermo Scientific) and 50 μg total protein was loaded to each well. ELISA analysis was carried out as per manufacturer's instructions. The detection for pAKT was based on chemiluminescence and pS6RP was based on absorbance. Qualitative assessments of the suppression of pAKT(T308), pAKT(5473), and pS6RP were also carried out by standard Western blot analyses.
For example, the compound of Example 1, at 50 mg/kg po, caused about 50% inhibition of pAkt(5473) at 1 and 4 hours and >50% inhibition of pS6RP at 1, 4 and 24 hours. Also, the compound of Example 2, at 50 mg/kg po, caused about 25-30% inhibition of pAkt(5473) at 4 and 24 hours and >50% inhibition of pS6RP at 1, 4 and 24 hours. The compound of example 51, at 30 mg/kg po, caused >50% inhibition of pS6RP at 2, 4 and 24 hours. Also, the compounds of examples 133, 146, 147, and 228, at 50 mg/kg po, each caused >50% inhibition of pS6RP at 3 and 8 hours.

Chain of PI3 kinase isoform δ (O00329 whole entry, the tested form may be a part, canonical isoform): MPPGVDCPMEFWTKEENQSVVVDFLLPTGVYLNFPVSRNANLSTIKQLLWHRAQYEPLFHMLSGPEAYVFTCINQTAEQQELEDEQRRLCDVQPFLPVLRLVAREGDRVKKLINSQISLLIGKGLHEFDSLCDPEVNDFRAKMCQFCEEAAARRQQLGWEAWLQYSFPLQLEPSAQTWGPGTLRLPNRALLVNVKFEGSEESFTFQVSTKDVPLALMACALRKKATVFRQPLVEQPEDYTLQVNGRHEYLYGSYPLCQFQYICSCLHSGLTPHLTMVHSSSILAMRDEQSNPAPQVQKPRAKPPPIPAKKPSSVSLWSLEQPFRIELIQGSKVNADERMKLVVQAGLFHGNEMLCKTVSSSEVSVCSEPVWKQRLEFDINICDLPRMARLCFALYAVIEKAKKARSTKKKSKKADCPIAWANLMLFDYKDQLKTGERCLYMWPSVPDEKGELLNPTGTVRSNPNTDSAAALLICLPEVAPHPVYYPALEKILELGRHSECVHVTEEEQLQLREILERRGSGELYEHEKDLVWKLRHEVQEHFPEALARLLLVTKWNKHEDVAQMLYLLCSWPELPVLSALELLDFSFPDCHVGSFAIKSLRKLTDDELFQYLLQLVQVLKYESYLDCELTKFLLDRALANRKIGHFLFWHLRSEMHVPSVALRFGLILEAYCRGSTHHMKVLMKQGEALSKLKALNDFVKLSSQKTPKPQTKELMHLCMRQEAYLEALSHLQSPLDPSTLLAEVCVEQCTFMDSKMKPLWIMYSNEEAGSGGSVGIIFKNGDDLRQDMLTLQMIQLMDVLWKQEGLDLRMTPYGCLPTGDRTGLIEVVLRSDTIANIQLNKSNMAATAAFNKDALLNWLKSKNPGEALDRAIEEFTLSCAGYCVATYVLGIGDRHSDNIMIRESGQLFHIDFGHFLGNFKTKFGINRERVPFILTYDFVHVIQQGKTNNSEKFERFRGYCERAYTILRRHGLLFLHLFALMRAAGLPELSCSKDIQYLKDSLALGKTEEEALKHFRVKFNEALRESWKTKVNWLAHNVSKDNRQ
Chain of PI3 kinase isoform δ (P27986 whole entry partner, the tested form may be a part, canonical isoform): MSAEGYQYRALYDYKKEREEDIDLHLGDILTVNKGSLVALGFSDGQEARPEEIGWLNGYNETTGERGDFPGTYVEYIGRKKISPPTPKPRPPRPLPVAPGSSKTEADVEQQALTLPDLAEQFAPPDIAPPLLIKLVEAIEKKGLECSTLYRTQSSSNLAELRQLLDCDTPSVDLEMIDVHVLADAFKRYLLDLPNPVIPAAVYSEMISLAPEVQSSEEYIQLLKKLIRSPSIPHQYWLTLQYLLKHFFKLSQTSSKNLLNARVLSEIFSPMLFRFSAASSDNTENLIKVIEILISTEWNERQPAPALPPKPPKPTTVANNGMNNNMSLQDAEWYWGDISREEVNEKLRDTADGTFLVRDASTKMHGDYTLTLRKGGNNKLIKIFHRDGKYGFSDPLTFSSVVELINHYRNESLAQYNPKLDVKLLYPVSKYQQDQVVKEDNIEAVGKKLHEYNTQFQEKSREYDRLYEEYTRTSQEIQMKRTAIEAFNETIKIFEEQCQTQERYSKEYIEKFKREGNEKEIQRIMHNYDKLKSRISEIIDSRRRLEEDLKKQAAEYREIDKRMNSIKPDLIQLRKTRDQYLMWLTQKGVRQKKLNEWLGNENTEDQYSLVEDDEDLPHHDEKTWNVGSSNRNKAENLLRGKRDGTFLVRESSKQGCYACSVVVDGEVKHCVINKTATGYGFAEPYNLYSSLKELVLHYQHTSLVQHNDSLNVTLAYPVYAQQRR
T1 sequence (P42336 whole entry): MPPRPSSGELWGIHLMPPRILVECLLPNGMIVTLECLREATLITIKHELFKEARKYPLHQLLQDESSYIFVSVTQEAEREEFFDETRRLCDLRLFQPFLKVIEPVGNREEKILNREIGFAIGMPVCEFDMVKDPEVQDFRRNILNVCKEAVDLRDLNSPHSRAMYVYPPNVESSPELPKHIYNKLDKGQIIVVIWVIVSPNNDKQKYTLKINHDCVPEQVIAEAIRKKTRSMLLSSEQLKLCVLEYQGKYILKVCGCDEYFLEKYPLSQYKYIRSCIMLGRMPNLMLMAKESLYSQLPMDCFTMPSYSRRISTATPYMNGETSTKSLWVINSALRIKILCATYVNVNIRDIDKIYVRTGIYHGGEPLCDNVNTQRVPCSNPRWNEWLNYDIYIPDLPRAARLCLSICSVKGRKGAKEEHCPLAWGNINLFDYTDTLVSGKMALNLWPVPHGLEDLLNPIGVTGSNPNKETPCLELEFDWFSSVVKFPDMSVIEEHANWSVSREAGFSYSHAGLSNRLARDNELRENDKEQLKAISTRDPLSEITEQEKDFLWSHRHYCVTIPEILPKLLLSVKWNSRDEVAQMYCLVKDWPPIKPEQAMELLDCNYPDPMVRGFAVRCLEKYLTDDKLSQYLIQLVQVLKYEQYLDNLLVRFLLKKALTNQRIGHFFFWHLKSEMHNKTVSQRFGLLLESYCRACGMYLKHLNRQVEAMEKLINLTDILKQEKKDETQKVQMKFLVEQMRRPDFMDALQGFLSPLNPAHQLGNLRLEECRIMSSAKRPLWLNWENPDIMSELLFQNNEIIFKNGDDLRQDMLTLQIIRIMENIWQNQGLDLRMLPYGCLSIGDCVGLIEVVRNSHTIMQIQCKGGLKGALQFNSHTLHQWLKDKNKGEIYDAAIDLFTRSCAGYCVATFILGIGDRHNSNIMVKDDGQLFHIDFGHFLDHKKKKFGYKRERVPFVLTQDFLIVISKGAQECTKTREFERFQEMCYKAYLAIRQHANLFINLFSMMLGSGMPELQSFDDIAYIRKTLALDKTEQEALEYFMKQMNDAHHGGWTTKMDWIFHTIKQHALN
T1 sequence (P27986 whole entry partner): as the sequence (P27986 whole entry partner, the tested form may be a part, canonical isoform) above

Take `CN(C)C(=O)c1ccc(NC(=O)Nc2ccc(-c3nc(N4CCOCC4)c4ccc(-c5cccc(S(C)(=O)=O)c5)cc4n3)cn2)cc1` [Example 3]: the IC50 in assay [1] was < 0.05 µM; at PI3 kinase isoform δ, > 1 µM; on mTOR kinase, 0.05 to 0.2 µM; with PC3 cells, 0.1 to 0.5 µM.
The corresponding values for `CN(C)C(=O)c1ccc(NC(=O)Nc2ccc(-c3nc(N4CCOCC4)c4ccc(-c5cccnc5F)cc4n3)cn2)cc1` [Example 54, 4-(3-{5-[7-(2-fluoro-pyridin-3-yl)-4-morpholin-4-yl-quinazolin-2-yl]-pyridin-2-yl}-ureido)-N,N-dimethyl-benzamide] are < 0.05 µM, > 1 µM, 0.05 to 0.2 µM and 0.1 to 0.5 µM.
As for `CN(C)C(=O)c1ccc(NC(=O)Nc2ccc(-c3nc(N4CCOCC4)c4ncc(-c5cccnc5F)cc4n3)cn2)cc1` [Example 111, 4-(3-(5-(7-(2-fluoropyridin-3-yl)-4-morpholino-pyrido[3,2-d]pyrimidin-2-yl)pyridin-2-yl)ureido)-N,N-dimethyl-benzamide], the IC50 in assay [1] was < 0.05 µM; on PI3 kinase isoform δ, > 1 µM; on mTOR kinase it was < 0.05 µM; in assay [2] it was 0.201 to 10 µM; in assay [3], 0.201 to 10 µM; in the assay with PC3 cells it was 0.201 to 10 µM.
On to `CN(C)C(=O)c1ccc(NC(=O)Nc2ccc(-c3nc(N4CCOCC4)c4cc(F)c(-c5cnn(C)c5)cc4n3)cn2)cc1` [Example 113, 4-(3-(5-(6-fluoro-7-(1-methyl-1H-pyrazol-4-yl)-4-morpholino-quinazolin-2-yl)pyridin-2-yl)ureido)-N,N-dimethyl-benzamide], for which the IC50 in assay [1] is < 0.05 µM; at PI3 kinase isoform δ, > 1 µM; on mTOR kinase, 0.05 to 0.2 µM; in assay [2] it was < 0.1 µM; in assay [3], < 0.1 µM; with PC3 cells, 0.201 to 10 µM.
In the case of `COc1ncc(-c2ccc3c(N4CCOCC4)nc(-c4ccc(NC(=O)Nc5ccc(C(=O)N(C)C)cc5F)cc4)nc3c2)cn1` [Example 147, 3-fluoro-4-(3-(4-(7-(2-methoxypyrimidin-5-yl)-4-morpholino-quinazolin-2-yl)phenyl)ureido)-N,N-dimethyl-benzamide], the IC50 in assay [1] is 0.05 to 0.2 µM; at mTOR kinase, < 0.05 µM; in assay [2], < 0.1 µM; in assay [4] it was 0.201 to 10 µM. The inhibition at 50 mg/kg in the assay on pS6RP in PC3 tumor was > 50%.
In the case of `CN(C)C(=O)c1ccc(NC(=O)Nc2ccc(-c3nc(N4CCOCC4)c4ccc(-c5ccc(CO)o5)cc4n3)cc2)c(F)c1` [Example 228, 3-fluoro-4-(3-(4-(7-(5-(hydroxymethyl)furan-2-yl)-4-morpholino-quinazolin-2-yl)phenyl)ureido)-N,N-dimethyl-benzamide], the IC50 in assay [1] was < 0.05 µM; at mTOR kinase, < 0.05 µM; in assay [2] it was 0.501 to 5 µM. Also, the inhibition at 50 mg/kg in the assay on pS6RP in PC3 tumor is > 50%.
`CN(C)C(=O)c1ccc(NC(=O)Nc2ccc(-c3nc(N4CCOCC4)c4ccc(-c5cccc(S(C)(=O)=O)c5)cc4n3)cn2)cc1F` [Example 253, 2-fluoro-N,N-dimethyl-4-(3-(5-(7-(3-(methylsulfonyl)phenyl)-4-morpholino-quinazolin-2-yl)pyridin-2-yl)ureido)-benzamide]: the IC50 in assay [1] is < 0.05 µM; on PI3 kinase isoform δ, > 1 µM; on mTOR kinase, 0.201 to 10 µM; in assay [2], < 0.1 µM.
